Laboratory results: patent publication US20180000085A1, “USE OF PICOLINAMIDE COMPOUNDS WITH FUNGICIDAL ACTIVITY” (DOW AGROSCIENCES LLC, priority 2014, published 2018)

Tests used:
Puccinia triticina = test: Wheat brown rust (PUCCRT) disease control on wheat seedlings; format: in vivo; set-up: key to PUCCRT 3DC, HV activity at 100 ppm (% control rating) / PUCCRT disease control, 3DC / PUCCRT 1DP disease control rating, HV activity / PUCCRT 3DC disease control rating, HV activity / PUCCRT 3DC, LV activity at 125.1 g/H (% Control rating) / PUCCRT 1DP, LV activity at 125.1 g/H (% Control rating) / PUCCRT 3DC disease control rating, LV activity at 125.1 g/H / PUCCRT 1DP disease control rating, LV activity at 125.1 g/H / PUCCRT 3DC disease control rating, HV activity at 100 ppm / PUCCRT 1DP disease control rating, HV activity at 100 ppm / HV activity at 100 ppm PUCCRT 3DC (disease control rating) / LV activity at 125.1 g/H PUCCRT 1DP (disease control rating) / LV activity at 125.1 g/H PUCCRT 3DC (disease control rating): A: > 80; B: ≤ 80; C: Not Tested; D: No Activity Observed in the Reported Assay; settings: for PUCCRT 1DP disease control rating, HV activity / PUCCRT 3DC disease control rating, HV activity: HV application at 100 ppm, wheat brown rust
Procedure: All fungicides were evaluated using the aforementioned method for their activity vs. all target diseases, unless stated otherwise. Wheat leaf blotch and brown rust activity were also evaluated using track spray applications, in which case the fungicides were formulated as EC formulations, containing 0.1% Trycol 5941 in the spray solutions. Wheat plants (variety Yuma) were grown from seed in a greenhouse in 50% mineral soil/50% soil-less Metro mix until the first leaf was fully emerged, with 7-10 seedlings per pot. These plants were inoculated with an aqueous spore suspension of Zymoseptoria tritici either prior to or after fungicide treatments. After inoculation the plants were kept in 100% relative humidity (one day in a dark dew chamber followed by two to three days in a lighted dew chamber at 20° C.) to permit spores to germinate and infect the leaf. The plants were then transferred to a greenhouse set at 20° C. for disease to develop. When disease symptoms were fully expressed on the 1st leaves of untreated plants, infection levels were assessed on a scale of 0 to 100 percent disease severity. Percent disease control was calculated using the ratio of disease severity on treated plants relative to untreated plants. Example B: Evaluation of Fungicidal Activity: Wheat Brown Rust (Puccinia triticina; Synonym: Puccinia recondita f. sp. Tritici; Bayer Code PUCCRT) Wheat plants (variety Yuma) were grown from seed in a greenhouse in 50% mineral soil/50% soil-less Metro mix until the first leaf was fully emerged, with 7-10 seedlings per pot. These plants were inoculated with an aqueous spore suspension of Puccinia triticina either prior to or after fungicide treatments. […] The plants were then transferred to a greenhouse set at 24° C. for disease to develop. Fungicide formulation, application and disease assessment followed the procedures as described in the Example A.

Zymoseptoria tritici = test: Leaf blotch of wheat (SEPTTR) disease control on wheat seedlings; format: in vivo; set-up: key to SEPTTR 1DP, HV activity at 100 ppm (% control rating) / SEPTTR 3DC, HV activity at 100 ppm (% control rating) / SEPTTR disease control, 1DP / SEPTTR disease control, 3DC / SEPTTR 1DP disease control rating, HV activity / SEPTTR 3DC disease control rating, HV activity / SEPTTR 3DC, LV activity at 125.1 g/H (% Control rating) / SEPTTR 1DP, LV activity at 125.1 g/H (% Control rating) / SEPTTR 1DP disease control rating, LV activity at 125.1 g/H / SEPTTR 3DC disease control rating, LV activity at 125.1 g/H / SEPTTR 3DC disease control rating, HV activity at 100 ppm / SEPTTR 1DP disease control rating, HV activity at 100 ppm / HV activity at 100 ppm SEPTTR 3DC (disease control rating) / HV activity at 100 ppm SEPTTR 1DP (disease control rating) / LV activity at 125.1 g/H SEPTTR 1DP (disease control rating) / LV activity at 125.1 g/H SEPTTR 3DC (disease control rating): A: > 80; B: ≤ 80; C: Not Tested; D: No Activity Observed in the Reported Assay; settings: for SEPTTR 1DP disease control rating, HV activity / SEPTTR 3DC disease control rating, HV activity: HV application at 100 ppm, wheat leaf blotch
Procedure: All fungicides were evaluated using the aforementioned method for their activity vs. all target diseases, unless stated otherwise. Wheat leaf blotch and brown rust activity were also evaluated using track spray applications, in which case the fungicides were formulated as EC formulations, containing 0.1% Trycol 5941 in the spray solutions. Wheat plants (variety Yuma) were grown from seed in a greenhouse in 50% mineral soil/50% soil-less Metro mix until the first leaf was fully emerged, with 7-10 seedlings per pot. These plants were inoculated with an aqueous spore suspension of Zymoseptoria tritici either prior to or after fungicide treatments. After inoculation the plants were kept in 100% relative humidity (one day in a dark dew chamber followed by two to three days in a lighted dew chamber at 20° C.) to permit spores to germinate and infect the leaf. The plants were then transferred to a greenhouse set at 20° C. for disease to develop. When disease symptoms were fully expressed on the 1st leaves of untreated plants, infection levels were assessed on a scale of 0 to 100 percent disease severity. Percent disease control was calculated using the ratio of disease severity on treated plants relative to untreated plants.

[1] = HV activity at 100 ppm, 1 Day Protectant, wheat
[2] = HV activity at 100 ppm, 3 Day Curative, wheat
[3] = high volume application, 100 ppm, 1DP
[4] = high volume application, 100 ppm, 3DC

Row | Compound | PUCCRT disease control, 1DP (Puccinia triticina; [1]) | PUCCRT disease control, 3DC (Puccinia triticina; [2]) | PUCCRT 1DP disease control rating, HV activity (Puccinia triticina; 1 Day Protectant) | PUCCRT 3DC disease control rating, HV activity (Puccinia triticina; 3 Day Curative) | PUCCRT 1DP, HV activity at 100 ppm (% control rating) (Puccinia triticina; [3]) | PUCCRT 3DC, HV activity at 100 ppm (% control rating) (Puccinia triticina; [4]) | SEPTTR disease control, 1DP (Zymoseptoria tritici; [1]) | SEPTTR disease control, 3DC (Zymoseptoria tritici; [2]) | SEPTTR 1DP disease control rating, HV activity (Zymoseptoria tritici; 1 Day Protectant) | SEPTTR 3DC disease control rating, HV activity (Zymoseptoria tritici; 3 Day Curative) | SEPTTR 1DP, HV activity at 100 ppm (% control rating) (Zymoseptoria tritici; [3]) | SEPTTR 3DC, HV activity at 100 ppm (% control rating) (Zymoseptoria tritici; [4])
1 | CCCOC(CC)C(Oc1ccccc1)C(C)OC(=O)C(CC)NC(=O)c1nccc(OC)c1O (stereo not drawn) [Cmpd 296] | B (≤ 80) | A (> 80) | B (≤ 80) | A (> 80) | B (≤ 80) | A (> 80) | B (≤ 80) | B (≤ 80) | B (≤ 80) | B (≤ 80) | B (≤ 80) | B (≤ 80)
2 | CC[C@@H](CCOC)[C@@H](Oc1ccccc1)[C@H](C)OC(=O)[C@H](C)NC(=O)c1nccc(OC)c1O [Cmpd 305] | – | – | A (> 80) | A (> 80) | – | – | – | – | A (> 80) | A (> 80) | – | –
3 | CCC(CC)[C@@H](Oc1ccccc1)[C@H](C)OC(=O)[C@H](C)NC(=O)c1nccc(OC)c1O [Cmpd 306] | – | – | A (> 80) | A (> 80) | – | – | – | – | A (> 80) | A (> 80) | – | –
4 | CCC(CC)[C@@H](Oc1ccccc1)[C@H](C)OC(=O)CNC(=O)c1nccc(OC)c1O [Cmpd 307] | – | – | A (> 80) | A (> 80) | – | – | – | – | D | A (> 80) | – | –
5 | CC[C@@H](CCOC)[C@@H](Oc1ccccc1)[C@H](C)OC(=O)[C@@H](C)NC(=O)c1nccc(OC)c1O [Cmpd 308] | – | – | D | D | – | – | – | – | D | B (≤ 80) | – | –
6 | CC[C@H](Oc1ccccc1)[C@@H](Oc1ccccc1)[C@H](C)OC(=O)[C@H](C)NC(=O)c1nccc(OC)c1O [Cmpd 309] | – | – | A (> 80) | A (> 80) | – | – | – | – | A (> 80) | B (≤ 80) | – | –
7 | CCCOC[C@@H](Oc1ccccc1)[C@H](C)OC(=O)[C@H](C)NC(=O)c1nccc(OC)c1O [Cmpd 310] | – | – | A (> 80) | A (> 80) | – | – | – | – | D | B (≤ 80) | – | –
8 | CC[C@H](Cc1ccccc1)[C@@H](Oc1ccccc1)[C@H](C)OC(=O)[C@H](C)NC(=O)c1nccc(OC)c1O [Cmpd 311] | – | – | A (> 80) | A (> 80) | – | – | – | – | A (> 80) | B (≤ 80) | – | –
9 | CC[C@H](Cc1ccccc1)[C@@H](Oc1ccccc1)[C@H](C)OC(=O)CNC(=O)c1nccc(OC)c1O [Cmpd 312] | – | – | A (> 80) | A (> 80) | – | – | – | – | D | D | – | –
10 | CC[C@@H](Cc1ccccc1)[C@H](Oc1ccccc1)[C@H](C)OC(=O)[C@H](C)NC(=O)c1nccc(OC)c1O [Cmpd 313] | – | – | A (> 80) | A (> 80) | – | – | – | – | A (> 80) | B (≤ 80) | – | –
11 | CCCOC[C@@H](Oc1ccccc1)[C@H](C)OC(=O)[C@H](CC)NC(=O)c1nccc(OC)c1O [Cmpd 314] | – | – | A (> 80) | B (≤ 80) | – | – | – | – | B (≤ 80) | D | – | –
12 | COc1ccnc(C(=O)N[C@@H](C)C(=O)O[C@@H](C)[C@@H](COc2ccccc2)Oc2ccccc2)c1O [Cmpd 315] | – | – | B (≤ 80) | A (> 80) | – | – | – | – | B (≤ 80) | B (≤ 80) | – | –
13 | CC[C@H](NC(=O)c1nccc(OC)c1O)C(=O)O[C@@H](C)[C@@H](COc1ccccc1)Oc1ccccc1 [Cmpd 316] | – | – | A (> 80) | A (> 80) | – | – | – | – | B (≤ 80) | B (≤ 80) | – | –
14 | CCC(CCC(C)C)C(Oc1ccccc1)C(C)OC(=O)C(C)NC(=O)c1nccc(OC)c1O (stereo not drawn) [Cmpd 317] | – | – | A (> 80) | B (≤ 80) | – | – | – | – | A (> 80) | B (≤ 80) | – | –
15 | CCC(CCC(C)C)C(OCC1CC1)C(C)OC(=O)C(C)NC(=O)c1nccc(OC)c1O (stereo not drawn) [Cmpd 318] | – | – | D | B (≤ 80) | – | – | – | – | D | B (≤ 80) | – | –
16 | COc1ccnc(C(=O)N[C@@H](C)C(=O)O[C@@H](C)[C@H](OCC2CC2)c2ccccc2)c1O [Cmpd 319] | – | – | A (> 80) | B (≤ 80) | – | – | – | – | A (> 80) | A (> 80) | – | –
17 | CCCO[C@@H]([C@H](C)OC(=O)[C@H](C)NC(=O)c1nccc(OC)c1O)[C@H](CC)Oc1ccccc1 [Cmpd 326, (S)-(2S,3S,4S)-4-phenoxy-3-propoxyhexan-2-yl-2-(3-hydroxy-4-methoxypicolinamido)propanoate] | – | – | A (> 80) | A (> 80) | – | – | – | – | D | D | – | –
18 | COc1ccnc(C(=O)N[C@@H](C)C(=O)O[C@@H](C)COCc2ccccc2)c1O [Cmpd 331] | – | – | B (≤ 80) | A (> 80) | – | – | – | – | B (≤ 80) | D | – | –
19 | C=CC[C@@H](OCc1ccccc1)[C@H](C)OC(=O)[C@H](C)NC(=O)c1nccc(OC)c1O [Cmpd 333, (S)-(2S,3R)-3-(benzyloxy)hex-5-en-2-yl-2-(3-hydroxy-4-methoxypicolinamido)propanoate] | – | – | A (> 80) | A (> 80) | – | – | – | – | B (≤ 80) | B (≤ 80) | – | –
